Measured values from ChEMBL document CHEMBL1141745, “New Sesquiterpene Lactones from Illicium floridanum” (J Nat Prod, 1998).

Test: Neurotoxicity against ip dosed mouse
Assay type: toxicity, organism-based
Conditions: in vivo

C[C@@H]1C[C@@H](O)[C@@]2(O)[C@@]13C[C@@H](OC(=O)[C@H]3O)[C@](C)(O)[C@@]21COC1=O [ANISATIN]
LD50: 1 mg/kg
